Measurements published in patent US20230085307A1, “PYRIDAZINONE COMPOUND AND HERBICIDE” (NISSAN CHEMICAL CORPORATION, priority 2019, published 2023).

Legend:
Japanese bulrush = assay: Test Example 1: herbicidal activity, application before weed generation under submerged conditions (Table 16, symbol B); type: in vivo, Japanese bulrush (Schoenoplectus juncoides); details: 320 g/ha applied herbicide
Outline: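 Emulsion formulation, water-diluted to set dose, was put onto the flooded surface (4 cm depth, alluvial soil) the same day weeds were sown and 2.5-leaf rice transplanted. After 3 weeks at 25-30 °C under glass, each species was rated 0 (≤5% kill) to 5 (≥90% kill).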

late watergrass = assay: Test Example 2: herbicidal activity, application during weed generation under submerged conditions (Table 17, symbol A); type: in vivo, late watergrass (Echinochloa oryzicola); details: AAH 320 g/ha; application during weed generation, submerged conditions
Outline: (§1)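 3-wk visual-criteria score after one water-surface dose. Emulsion formulation, water-diluted to set rate; applied at 1–2 leaf stage; alluvial soil, 4 cm standing water; seeds co-sown; greenhouse 25–30° C.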

oval-leafed pondweed = assay: Test Example 2: herbicidal activity, application during weed generation under submerged conditions (Table 17, symbol C); type: in vivo, oval-leafed pondweed (Monochoria vaginalis); details: AAH 320 g/ha; application during weed generation, submerged conditions
Outline: as §1

Chinese sprangletop = assay: Test Example 3: herbicidal effect by foliage application, Wagner pot (Table 18, symbol D); type: in vivo, chinese sprangletop (Leptochloa chinensis); details: for herbicidal effect on D: Chinese sprangletop: amount of applied herbicide 320 g/ha
Outline: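 Plants were sown in alluvial soil held under 0.1–0.5 cm standing water and grown 14 days in a greenhouse at 25–30 °C. An emulsifiable formulation, water-diluted to the set dose, was then sprayed onto the foliage, and effects were scored three weeks later using previously defined criteria.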

southern crabgrass = assay: Test Example 4: herbicidal effect by soil treatment (Table 19, symbol F); type: in vivo, southern crabgrass (Digitaria ciliaris); details: for herbicidal effect on F: southern crabgrass: amount of applied herbicide 320 g/ha
Outline: (§2)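 Step 1: sow seeds in sterilized diluvial soil, cover ~1.5 cm. Step 2: spray diluted emulsion onto soil surface at predetermined rate. Step 3: greenhouse, 25–30° C, three weeks. Step 4: grade effect on each plant by earlier criteria.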

wild oat [1] = assay: Test Example 4: herbicidal effect by soil treatment (Table 19, symbol I); type: in vivo, wild oat (Avena fatua); details: for herbicidal effect on I: wild oat: amount of applied herbicide 320 g/ha
Outline: as §2

blackgrass = assay: Test Example 4: herbicidal effect by soil treatment (Table 19, symbol J); type: in vivo, blackgrass (Alopecurus myosuroides)
Outline: as §2

Italian ryegrass = assay: Test Example 4: herbicidal effect by soil treatment (Table 19, symbol K); type: in vivo, Italian ryegrass (Lolium multiflorum); details: for herbicidal effect on K: Italian ryegrass: amount of applied herbicide 320 g/ha
Outline: as §2

windgrass [2] = assay: Test Example 4: herbicidal effect by soil treatment (Table 19, symbol L); type: in vivo, windgrass (Apera spica-venti); details: for herbicidal effect on L: windgrass: amount of applied herbicide 320 g/ha
Outline: as §2

lambsquarters [3] = assay: Test Example 4: herbicidal effect by soil treatment (Table 19, symbol O); type: in vivo, lambsquarters (Chenopodium album); details: amount of applied herbicide 320 g/ha
Outline: as §2

persian speedwell [4] = assay: Test Example 4: herbicidal effect by soil treatment (Table 19, symbol R); type: in vivo, Persian speedwell (Veronica persica); details: for herbicidal effect on R: persian speedwell: amount of applied herbicide 320 g/ha
Outline: as §2

barnyard grass = assay: Test Example 5: herbicidal effect by foliage application, plastic box (Table 20, symbol H); type: in vivo, barnyard grass (Echinochloa crus-galli); details: foliage application, evaluated three weeks after application; for H: barnyard grass, herbicidal effect (criteria 0-5): AAH 320 g/ha
Outline: (§3)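 Foliar spray test: emulsion formulation diluted in water to a set application rate, sprayed onto 14-day-old plants raised in diluvial soil at 25° C to 30° C under glass. Both herbicidal effect and crop effect rated visually three weeks later.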

wild oat [5] = assay: Test Example 5: herbicidal effect by foliage application, plastic box (Table 20, symbol I); type: in vivo, wild oat (Avena fatua); details: foliage application, evaluated three weeks after application; for I: wild oat, herbicidal effect (criteria 0-5): AAH 320 g/ha
Outline: as §3

windgrass [6] = assay: Test Example 5: herbicidal effect by foliage application, plastic box (Table 20, symbol L); type: in vivo, windgrass (Apera spica-venti); details: foliage application, evaluated three weeks after application; for L: windgrass, herbicidal effect (criteria 0-5): AAH 320 g/ha
Outline: as §3

velvetleaf = assay: Test Example 5: herbicidal effect by foliage application, plastic box (Table 20, symbol M); type: in vivo, velvetleaf (Abutilon theophrasti); details: foliage application, evaluated three weeks after application; for M: velvetleaf, herbicidal effect (criteria 0-5): AAH 320 g/ha
Outline: as §3

lambsquarters [7] = assay: Test Example 5: herbicidal effect by foliage application, plastic box (Table 20, symbol O); type: in vivo, lambsquarters (Chenopodium album); details: foliage application, evaluated three weeks after application; for O: lambsquarters, herbicidal effect (criteria 0-5): AAH 320 g/ha
Outline: as §3

persian speedwell [8] = assay: Test Example 5: herbicidal effect by foliage application, plastic box (Table 20, symbol R); type: in vivo, Persian speedwell (Veronica persica); details: foliage application, evaluated three weeks after application; for R: persian speedwell, herbicidal effect (criteria 0-5): AAH 320 g/ha
Outline: as §3

Row | SMILES | Herbicidal effect on B: Japanese bulrush (grade 0-5) (Japanese bulrush) | herbicidal effect rating, A: late watergrass (late watergrass) | herbicidal effect rating, C: oval-leafed pondweed (oval-leafed pondweed) | herbicidal effect on D: Chinese sprangletop (Chinese sprangletop) | herbicidal effect on F: southern crabgrass (southern crabgrass) | herbicidal effect on I: wild oat (wild oat [1]) | herbicidal effect on K: Italian ryegrass (Italian ryegrass) | herbicidal effect on L: windgrass (windgrass [2]) | herbicidal effect on O: lambsquarters (lambsquarters [3]) | herbicidal effect on R: persian speedwell (persian speedwell [4]) | H: barnyard grass, herbicidal effect (criteria 0-5) (barnyard grass) | I: wild oat, herbicidal effect (criteria 0-5) (wild oat [5]) | L: windgrass, herbicidal effect (criteria 0-5) (windgrass [6]) | M: velvetleaf, herbicidal effect (criteria 0-5) (velvetleaf) | O: lambsquarters, herbicidal effect (criteria 0-5) (lambsquarters [7]) | R: persian speedwell, herbicidal effect (criteria 0-5) (persian speedwell [8]) | also measured
1 | CCCC(=O)Oc1c(C)nn(C)c(=O)c1-c1c(-c2ccc(SC(C)C)cc2)sc2ccc(F)cc12 [2-253] | 3 (Herbicidal rate of 40% or more and less than 70%) | 3 (Herbicidal rate of 40% or more and less than 70%) | 3 (Herbicidal rate of 40% or more and less than 70%) | 3 (Herbicidal rate of 40% or more and less than 70%) | 0 (Herbicidal rate of 5% or less (almost no effect)) | 0 (Herbicidal rate of 5% or less (almost no effect)) | 0 (Herbicidal rate of 5% or less (almost no effect)) | 0 (Herbicidal rate of 5% or less (almost no effect)) | 4 (Herbicidal rate of 70% or more and less than 90%) | 2 (Herbicidal rate of 20% or more and less than 40%) | 5 (Herbicidal rate of 90% or more (almost completely withered)) | 2 (Herbicidal rate of 20% or more and less than 40%) | 3 (Herbicidal rate of 40% or more and less than 70%) | 5 (Herbicidal rate of 90% or more (almost completely withered)) | 4 (Herbicidal rate of 70% or more and less than 90%) | 5 (Herbicidal rate of 90% or more (almost completely withered)) | herbicidal effect on J: blackgrass (blackgrass; amount of applied herbicide 320 g/ha): 0 (Herbicidal rate of 5% or less (almost no effect))
2 | C#CCOc1ccc(-c2sc3ccc(F)cc3c2-c2c(OCOCCOC)c(C)nn(C)c2=O)cc1 [2-055] | 3 (Herbicidal rate of 40% or more and less than 70%) | 0 (Herbicidal rate of 5% or less (almost no effect)) | 3 (Herbicidal rate of 40% or more and less than 70%) | – | – | – | – | – | – | – | – | – | – | – | – | – | herbicidal effect on D (Chinese sprangletop), rating 0-5 (Chinese sprangletop; 320 g/ha): 5 (Herbicidal rate of 90% or more (almost completely withered)); herbicidal effect rating, F: southern crabgrass (southern crabgrass; 320 g/ha): 1 (Herbicidal rate of 5% or more and less than 20%); herbicidal effect rating, I: wild oat (wild oat [1]; 320 g/ha): 0 (Herbicidal rate of 5% or less (almost no effect)); herbicidal effect rating, J: blackgrass (blackgrass; 320 g/ha): 0 (Herbicidal rate of 5% or less (almost no effect)); herbicidal effect rating, K: Italian ryegrass (Italian ryegrass; 320 g/ha): 0 (Herbicidal rate of 5% or less (almost no effect)); herbicidal effect rating, L: windgrass (windgrass [2]; 320 g/ha): 0 (Herbicidal rate of 5% or less (almost no effect)); herbicidal effect rating, R: persian speedwell (persian speedwell [4]; 320 g/ha): 5 (Herbicidal rate of 90% or more (almost completely withered)); herbicidal effect on H: barnyard grass (barnyard grass; 320 g/ha): 4 (Herbicidal rate of 70% or more and less than 90%); herbicidal effect on I: wild oat (wild oat [5]; 320 g/ha): 1 (Herbicidal rate of 5% or more and less than 20%); herbicidal effect on L: windgrass (windgrass [6]; 320 g/ha): 0 (Herbicidal rate of 5% or less (almost no effect)); herbicidal effect on M: velvetleaf (velvetleaf; 320 g/ha): 5 (Herbicidal rate of 90% or more (almost completely withered)); herbicidal effect on O: lambsquarters (lambsquarters [7]; 320 g/ha): 5 (Herbicidal rate of 90% or more (almost completely withered)); herbicidal effect on R: persian speedwell (persian speedwell [8]; 320 g/ha): 5 (Herbicidal rate of 90% or more (almost completely withered))
3 | C=C(C)C(=O)Oc1c(C)nn(C)c(=O)c1-c1c(-c2ccc(OC(F)F)cc2)sc2ccc(F)cc12 [2-281] | 5 (Herbicidal rate of 90% or more (almost completely withered)) | 5 (Herbicidal rate of 90% or more (almost completely withered)) | 5 (Herbicidal rate of 90% or more (almost completely withered)) | 3 (Herbicidal rate of 40% or more and less than 70%) | 3 (Herbicidal rate of 40% or more and less than 70%) | 0 (Herbicidal rate of 5% or less (almost no effect)) | 5 (Herbicidal rate of 90% or more (almost completely withered)) | 3 (Herbicidal rate of 40% or more and less than 70%) | 5 (Herbicidal rate of 90% or more (almost completely withered)) | 5 (Herbicidal rate of 90% or more (almost completely withered)) | 5 (Herbicidal rate of 90% or more (almost completely withered)) | 4 (Herbicidal rate of 70% or more and less than 90%) | 5 (Herbicidal rate of 90% or more (almost completely withered)) | 5 (Herbicidal rate of 90% or more (almost completely withered)) | 5 (Herbicidal rate of 90% or more (almost completely withered)) | 5 (Herbicidal rate of 90% or more (almost completely withered)) | –
4 | C=CCOC(=O)Oc1c(C)nn(C)c(=O)c1-c1c(-c2ccc(OC(F)F)cc2)sc2ccc(F)cc12 [2-294] | 5 (Herbicidal rate of 90% or more (almost completely withered)) | 3 (Herbicidal rate of 40% or more and less than 70%) | 3 (Herbicidal rate of 40% or more and less than 70%) | 4 (Herbicidal rate of 70% or more and less than 90%) | 5 (Herbicidal rate of 90% or more (almost completely withered)) | 1 (Herbicidal rate of 5% or more and less than 20%) | 5 (Herbicidal rate of 90% or more (almost completely withered)) | 4 (Herbicidal rate of 70% or more and less than 90%) | 5 (Herbicidal rate of 90% or more (almost completely withered)) | 5 (Herbicidal rate of 90% or more (almost completely withered)) | 5 (Herbicidal rate of 90% or more (almost completely withered)) | 3 (Herbicidal rate of 40% or more and less than 70%) | 3 (Herbicidal rate of 40% or more and less than 70%) | 5 (Herbicidal rate of 90% or more (almost completely withered)) | 5 (Herbicidal rate of 90% or more (almost completely withered)) | 5 (Herbicidal rate of 90% or more (almost completely withered)) | –
